# Values of other authors as cited in patent US5683715A, “Taxane-containing phosphatidylcholine liposomes” (The Liposome Company, Inc., priority 1995, dated 1997).
# Experiments:
# [1] = test system: tubulin; conditions: Schiff and Horowitz 1980
# [2] = test system: ovarian and breast cancers, malignant melanoma, colon cancer, leukemias and lung cancer; conditions: literature
smiles,measurement,setting,value
CC(=O)O[C@H]1C(=O)[C@@]2(C)[C@H]([C@H](OC(=O)c3ccccc3)[C@]3(O)C[C@H](OC(=O)[C@H](O)[C@@H](NC(=O)c4ccccc4)c4ccccc4)C(C)=C1C3(C)C)[C@]1(OC(C)=O)CO[C@@H]1C[C@@H]2O [Paclitaxel],Concentrations of optimal effect on polymerization and stabilization of microtubules,[1],near stoichiometric equivalence with tubulin dimers
same,Activity against cancers,[2],"activity against ovarian and breast cancers, as well as against malignant melanoma, colon cancer, leukemias and lung cancer"
